Source: US12102648B2, “Orally-bioavailable nucleoside analogs” (priority 2021, dated 2024)

How the values were obtained:
[1] = cited from earlier work
Caco-2 cell monolayer = assay: in vitro; type: in vitro ADME; conditions: human, Caco-2, 90 min
How it was run: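 Caco-2 monolayers cultured 19 days on inserts (TEER >600 […]); bidirectional A-to-B and B-to-A transport at 37° C over 90 min, samples quantified by LC/MS/MS. Papp, efflux ratio and recovery calculated; ER >2 flags potential efflux substrates.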

[2] = rats; cited from earlier work

CCC(CC)COC(=O)[C@H](C)N[P@](=O)(OC[C@H]1O[C@@](C#N)(c2ccc3c(N)ncnn23)[C@H](O)[C@@H]1O)Oc1ccccc1 [remdesivir, Remdesivir]
T1/2 (hydrolysis by esterases) ([1]; in vivo, iv): about 1 hr

N#C[C@@]1(c2ccc3c(NC(=O)[C@@H](N)Cc4ccc(F)cc4)ncnn23)O[C@H](CO)[C@@H](O)[C@H]1O [Compound 84, (S)-2-amino-N-(7-((2R,3R,4S,5R)-2-cyano-3,4-dihydroxy-5-(hydroxymethyl)tetrahydrofuran-2-yl)pyrrolo[2,1-f][1,2,4]triazin-4-yl)-3-(4-fluorophenyl)propenamide]
Papp, A-B (Caco-2 cell monolayer): 0 ×10⁻⁶ cm/s
Papp, B-A (Caco-2 cell monolayer): 0 ×10⁻⁶ cm/s

N#C[C@@]1(c2ccc3c(N)ncnn23)O[C@H](CO)[C@@H](O)[C@H]1O [GS-441524]
% F (oral bioavailability) [2]: 4.8%
T½ in plasma ([1]; plasma, following IV administration): about 24.5 hr
